Legend:
[1] = target: T1, G12D-mutant human KRAS (amino acid residues 1-188) (Homo sapiens, UniProt P01116, G12D); experiment: KRAS Binding Disruption Assay (AlphaScreen; biotinylated KRpep-2d analogue or RAF1-RBD), G12D; settings: KRAS G12D; geometric mean; read-out: KRAS GMean IC50 (uM) MUTATION: G12D
T1 construct: G12D or G12C-mutant human KRAS (amino acid residues 1-188) with FLAG tag; made in house; host or cells: E. coli
How it was run: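 AlphaScreen readout: signal falls as compound displaces biotinylated KRpep-2d analogue or RAF1-RBD from mutant KRAS. Both partners at 5-20 nM, 1 h binding at 25° C, then 10 μg/mL Anti-Flag acceptor and streptavidin donor beads for 1 h. IC50 by nonlinear regression of % inhibition.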

[2] = target: T2, G12V-mutant human KRAS (amino acid residues 1-188) (Homo sapiens, UniProt P01116, G12V); experiment: KRAS Binding Competition Assay (AlphaScreen; biotinylated KRpep-2d analogue), G12V; settings: geometric mean, read-out: KRAS GMean IC50 (uM) MUTATION: G12V
T2 construct: G12V-mutant human KRAS (amino acid residues 1-188) with FLAG tag was purified from E. coli; made in house; host or cells: E. coli

Row | Compound | IC50 [1] | IC50 [2]
1 | Cc1cccc2c1N(c1ccc3c(N4C[C@H]5CC[C@@H](C4)N5)nc(OC[C@@H]4CCCN4C)nc3c1)CC(O)C2 (stereo partly drawn) [P-0406, 1-(4-((1R,5S)-3,8-diazabicyclo[3.2.1]octan-3-yl)-2-(((S)-1-methylpyrrolidin-2-yl)methoxy)quinazolin-7-yl)-8-methyl-1,2,3,4-tetrahydroquinolin-3-ol] | 10 to 100 µM | 100 to 1000 µM
2 | CN1CCC[C@H]1COc1nc(N2C[C@H]3CC[C@@H](C2)N3C(=O)CS(N)(=O)=O)c2ccc(-c3cc(O)cc4ccccc34)cc2n1 [P-0407, 2-((1R,5S)-3-(7-(3-hydroxynaphthalen-1-yl)-2-(((S)-1-methylpyrrolidin-2-yl)methoxy)quinazolin-4-yl)-3,8-diazabicyclo[3.2.1]octan-8-yl)-2-oxoethane-1-sulfonamide] | 0.0001 to 10 µM | 0.0001 to 10 µM
3 | CN(C)S(=O)(=O)CC(=O)N1[C@@H]2CC[C@H]1CN(c1nc(OCC34CCCN3CCC4)nc3c(F)c(-c4cc(O)cc5ccccc45)ccc13)C2 [P-0410, 2-((1R,5S)-3-(8-fluoro-7-(3-hydroxynaphthalen-1-yl)-2-((tetrahydro-1H-pyrrolizin-7a(5H)-yl)methoxy)quinazolin-4-yl)-3,8-diazabicyclo[3.2.1]octan-8-yl)-N,N-dimethyl-2-oxoethane-1-sulfonamide] | 0.0001 to 10 µM | 0.0001 to 10 µM
4 | CN(C)CCc1nc(N2C[C@H]3CC[C@@H](C2)N3)c2ccc(-c3cc(O)cc4ccccc34)c(F)c2n1 [P-0413] | 0.0001 to 10 µM | 10 to 100 µM
5 | CN1CCN(CCNC(=O)N2[C@@H]3CC[C@H]2CN(c2nc(OCC4CCCN4C)nc4c(F)c(-c5cc(O)cc6ccccc56)ccc24)C3)CC1 (stereo partly drawn) [P-0416, (1R,5S)-3-(8-fluoro-7-(3-hydroxynaphthalen-1-yl)-2-((1-methylpyrrolidin-2-yl)methoxy)quinazolin-4-yl)-N-(2-(4-methylpiperazin-1-yl)ethyl)-3,8-diazabicyclo[3.2.1]octane-8-carboxamide] | 10 to 100 µM | 10 to 100 µM
6 | CN1CCCC1COc1nc(N2C[C@H]3CC[C@@H](C2)N3C(=O)NC2COC(C)(C)C2)c2ccc(-c3cc(O)cc4ccccc34)c(F)c2n1 (stereo partly drawn) [P-0417, (1R,5S)-N-(5,5-dimethyltetrahydrofuran-3-yl)-3-(8-fluoro-7-(3-hydroxynaphthalen-1-yl)-2-((1-methylpyrrolidin-2-yl)methoxy)quinazolin-4-yl)-3,8-diazabicyclo[3.2.1]octane-8-carboxamide] | 0.0001 to 10 µM | 0.0001 to 10 µM
7 | CCN1CC[C@H](NC(=O)N2[C@@H]3CC[C@H]2CN(c2nc(OCC4CCCN4C)nc4c(F)c(-c5cc(O)cc6ccccc56)ccc24)C3)C1 (stereo partly drawn) [P-0418, (1R,5S)-N-((S)-1-ethylpyrrolidin-3-yl)-3-(8-fluoro-7-(3-hydroxynaphthalen-1-yl)-2-((1-methylpyrrolidin-2-yl)methoxy)quinazolin-4-yl)-3,8-diazabicyclo[3.2.1]octane-8-carboxamide] | 0.0001 to 10 µM | 10 to 100 µM
8 | CN1CCCC1COc1nc(N2C[C@H]3CC[C@@H](C2)N3C(=O)NC2CCN(C3CCCCC3)C2)c2ccc(-c3cc(O)cc4ccccc34)c(F)c2n1 (stereo partly drawn) [P-0419, (1R,5S)-N-(1-cyclohexylpyrrolidin-3-yl)-3-(8-fluoro-7-(3-hydroxynaphthalen-1-yl)-2-((1-methylpyrrolidin-2-yl)methoxy)quinazolin-4-yl)-3,8-diazabicyclo[3.2.1]octane-8-carboxamide] | 0.0001 to 10 µM | 10 to 100 µM
9 | CONC(=O)N1[C@@H]2CC[C@H]1CN(c1nc(OCC3CCCN3C)nc3c(F)c(-c4cc(O)cc5ccccc45)ccc13)C2 (stereo partly drawn) [P-0420, (1R,5S)-3-(8-fluoro-7-(3-hydroxynaphthalen-1-yl)-2-((1-methylpyrrolidin-2-yl)methoxy)quinazolin-4-yl)-N-methoxy-3,8-diazabicyclo[3.2.1]octane-8-carboxamide] | 0.0001 to 10 µM | 10 to 100 µM
